Where two headings read alike, the source gives them in different places.
Assays:
[1] = system: HT29 colorectal carcinoma; experiment: qHTS cell viability screen (Cell Titer Glo), HT29; assay type: cell-based
[2] = system: PC3 prostate cancer cell line; experiment: qHTS cell viability screen (Cell Titer Glo), PC3; assay type: cell-based; conditions: read-out: CC50 PC3
[3] = system: MDA-MB-231 breast cancer cell line; experiment: qHTS cell viability screen (Cell Titer Glo), MDA-MB-231; assay type: cell-based
[4] = system: BJ cells, normal human foreskin fibroblast cell line; experiment: BJ cell cytotoxicity counter screen
From the text: (§1) Most analogs in the presented series are lipophilic while also containing a positively charged amine. Lipophilic basic amines can accumulate in cell membranes if their lipophilic atom groups form favorable non-polar contacts with lipid chains while their charged amine is interacting with fatty acid head groups. Such association with lipids can lead to cytotoxicity through membrane destabilization. Therefore, we evaluated a number of representative compounds against BJ cells, a normal human foreskin fibroblast cell line, where cytotoxicity was determined at 10 µM drug concentration, as described previously.
(§2) minimum locked at 0 and 100 respectively.
(§3) children with ALL in relapse.
(§4) foreskin fibroblast cell line (BJ).
(§5) Table 2. […] SSA: Sulindac sulfide

[5] = BJ cell cytotoxicity counter screen; conditions: human
From the text: as §1, §2, §3, §4, §5

[6] = system: NALM16 cell line (acute lymphoblastic leukemia); experiment: Additional cancer cell line panel, NALM16; assay type: cell-based, human; conditions: confidence intervals in parentheses, NA: not active
[7] = system: REH cells (precursor B-cell ALL); experiment: Additional cancer cell line panel, REH; assay type: cell-based, human; conditions: Homo sapiens, REH, read-out: EC50 REH
[8] = HT29 colorectal carcinoma, 72 hours, cell viability Cell Titer Glo, read-out: CC50 HT29
[9] = PC3 prostate, 72 hours, cell viability Cell Titer Glo
[10] = MDA-MB-231 breast, 96 hours, cell viability Cell Titer Glo, read-out: CC50 MDA-MB-231
[11] = read-out: EC50 BJ (cytotoxicity), BJ normal human foreskin fibroblasts, confidence intervals in parentheses
[12] = Homo sapiens, HT-29, 72 h, HT29 colorectal carcinoma, 72 hours, cell viability Cell Titer Glo, read-out: CC50 HT29
[13] = 72 h, PC3 prostate, 72 hours, cell viability Cell Titer Glo
[14] = Homo sapiens, MDA-MB-231, 96 h, MDA-MB-231 breast, 96 hours, cell viability Cell Titer Glo, read-out: CC50 MDA-MB-231
[15] = BJ cells (normal human foreskin fibroblast cell line)
[16] = confidence intervals in parentheses, NA: not active

SMILES | CC50 [2, 9] | CC50 [1, 12] | CC50 [2, 13] | CC50 [3, 14] | melting point | also measured
CSc1ccc(/C=C2/C(C)=C(CCNCc3ccccc3)c3cc(F)ccc32)cc1 [Compound 7] | > 50 µM | – | – | – | – | CC50 [1, 8]: 21.8 ± 2.29 µM; CC50 [3, 10]: 46.5 ± 1.92 µM; EC50 [4, 11]: > 7.57 µM
CSc1ccc(/C=C2/C(C)=C(CCNCc3ccco3)c3cc(F)ccc32)cc1 [Compound 8] | 9.94 ± 0.77 µM | – | – | – | – | CC50 [1, 8]: 4.27 ± 0.33 µM; CC50 [3, 10]: 7.77 ± 0.54 µM; EC50 [4, 11]: > 7.57 µM
CSc1ccc(/C=C2/C(C)=C(CCNCCN3CCCCC3)c3cc(F)ccc32)cc1 [Compound 9] | 4.78 ± 0.2 µM | – | – | – | – | CC50 [1, 8]: 1.81 ± 0.06 µM; CC50 [3, 10]: 3.73 ± 0.21 µM; EC50 [4, 11]: > 7.57 µM
CC1=C(CCNCc2ccccc2)c2cc(F)ccc2/C1=C\c1ccc(S(C)(=O)=O)cc1 [Compound 12] | – | 3.39 ± 0.28 µM | 7.02 ± 0.48 µM | 4.52 ± 0.77 µM | 96 to 98 °C | –
CSc1ccc(/C=C2/C(C)=C(CCN)c3cc(F)ccc32)cc1 [Compound 13] | – | 4.05 ± 0.16 µM | 7.46 ± 0.46 µM | 7.2 ± 0.29 µM | – | EC50 [5, 15]: > 7.57 µM
CSc1ccc(/C=C2/C(C)=C(CCNC(=O)c3ccco3)c3cc(F)ccc32)cc1 [Compound 14] | – | 9.24 ± 1.18 µM | 8.92 ± 0.83 µM | 16.8 ± 3.2 µM | 168 to 170 °C | EC50 [5, 15]: > 7.57 µM
COc1cc(/C=C2/C(C)=C(CN)c3cc(F)ccc32)cc(OC)c1OC [Compound 17] | – | 14.6 ± 2.42 µM | 29.7 ± 4.49 µM | 15.3 ± 4.44 µM | 108 to 110 °C | –
CSc1ccc(/C=C2/C(C)=C(CNC(=O)CN)c3cc(F)ccc32)cc1 [Compound 21] | 7.27 ± 0.31 µM | – | – | – | – | CC50 [1, 8]: 5.49 ± 0.21 µM; CC50 [3, 10]: 7.3 ± 0.62 µM; EC50 [4, 11]: > 22.7 µM
CSc1ccc(/C=C2/C(C)=C(CNC(=O)[C@@H](N)CO)c3cc(F)ccc32)cc1 [Compound 22] | – | 5.98 ± 0.24 µM | 6.03 ± 0.41 µM | 7.43 ± 0.87 µM | 146 to 148 °C | EC50 [5, 15]: > 22.7 µM
CSc1ccc(/C=C2/C(C)=C(CNC(=O)[C@@H](N)CC(C)C)c3cc(F)ccc32)cc1 [Compound 23] | 6.21 ± 0.49 µM | – | < 10 µM | < 10 µM | – | CC50 [3, 10]: 6.7 ± 0.71 µM; EC50 ([6]; Homo sapiens, NALM16): 30 µM; EC50 [7, 16]: 16 µM; EC50 [5, 15]: 16.4 µM
CSc1ccc(/C=C2/C(C)=C(CNC(=O)[C@@H]3CCCN3)c3cc(F)ccc32)cc1 [Compound 25] | – | 3.15 ± 0.17 µM | 6.66 ± 0.42 µM | 4.35 ± 0.19 µM | – | EC50 [7, 16]: 150 µM; EC50 [5, 15]: > 22.7 µM
COc1cc(/C=C2/C(C)=C(CNC(C)=O)c3cc(F)ccc32)cc(OC)c1OC [Compound 28] | – | 6.44 ± 1.4 µM | 23.3 ± 2.61 µM | 5.77 ± 1.55 µM | 183 to 185 °C | –
COc1cc(/C=C2/C(C)=C(CNC(=O)CN)c3cc(F)ccc32)cc(OC)c1OC [Compound 29] | 17.9 ± 2.08 µM | – | – | – | – | CC50 [1, 8]: 8.51 ± 1.7 µM; CC50 [3, 10]: 9.92 ± 2.13 µM; EC50 [6]: 230 µM; EC50 [4, 11]: > 22.7 µM
COc1cc(/C=C2/C(C)=C(CNC(=O)[C@@H](N)CO)c3cc(F)ccc32)cc(OC)c1OC [Compound 30] | – | 11.1 ± 1.35 µM | 26.5 ± 6.01 µM | 11.9 ± 2.27 µM | 118 to 120 °C | EC50 [7, 16]: 53 µM; EC50 [5, 15]: > 22.7 µM
COc1cc(/C=C2/C(C)=C(CNC(=O)[C@@H](N)CC(C)C)c3cc(F)ccc32)cc(OC)c1OC [Compound 31] | – | – | – | – | – | CC50 ([1]; Homo sapiens, HT-29, 72 h, read-out: CC50 HT29): 5.21 ± 0.39 µM; CC50 ([2]; 72 h): 12 ± 1.47 µM; CC50 ([3]; Homo sapiens, MDA-MB-231, 96 h, read-out: CC50 MDA-MB-231): 8.87 ± 1.38 µM; EC50 [7]: 16 µM; EC50 [5]: > 22.7 µM
CSc1ccc(/C=C2/C(C)=C(CNS(C)(=O)=O)c3cc(F)ccc32)cc1 [Compound 34] | – | 7.43 ± 0.48 µM | 20.2 ± 3.2 µM | 9.06 ± 2.26 µM | 159 to 160 °C | EC50 [5, 15]: > 22.7 µM
CCS(=O)(=O)NCC1=C(C)/C(=C/c2ccc(SC)cc2)c2ccc(F)cc21 [Compound 35] | – | 8.33 ± 1.64 µM | 22.6 ± 3.25 µM | 11.9 ± 2.61 µM | 131 to 133 °C | –
CSc1ccc(/C=C2/C(C)=C(CNS(=O)(=O)c3ccccc3)c3cc(F)ccc32)cc1 [Compound 36] | – | 9.94 ± 0.83 µM | 39.6 ± 14.8 µM | 17.7 ± 2.1 µM | 141 to 143 °C | –
CSc1ccc(/C=C2/C(C)=C(CNS(=O)(=O)c3cccc4ccccc34)c3cc(F)ccc32)cc1 [Compound 38] | – | 17 ± 3.73 µM | > 50 µM | 38.9 ± 10.3 µM | 94 to 95 °C | –
CSc1ccc(/C=C2/C(C)=C(CNS(=O)(=O)c3ccc4ccccc4c3)c3cc(F)ccc32)cc1 [Compound 39] | – | 25.6 ± 5.91 µM | > 50 µM | 12.9 ± 2.39 µM | 152 to 154 °C | –
CCS(=O)(=O)NCC1=C(C)/C(=C/c2cc(OC)c(OC)c(OC)c2)c2ccc(F)cc21 [Compound 42] | – | 15.6 ± 5.56 µM | 15.1 ± 1.84 µM | 6.58 ± 1.39 µM | 132 to 134 °C | –
COc1cc(/C=C2/C(C)=C(CNS(=O)(=O)c3ccc4ccccc4c3)c3cc(F)ccc32)cc(OC)c1OC [Compound 46] | – | > 50 µM | > 50 µM | > 50 µM | 118 to 120 °C | –
CSc1ccc(/C=C2/C(C)=C(CN(Cc3ccncc3)Cc3ccncc3)c3cc(F)ccc32)cc1 [Compound 49] | 12.7 ± 1.44 µM | – | – | – | – | CC50 [1]: 10.8 ± 1.84 µM; CC50 [3]: 9.5 ± 2.14 µM; EC50 [6]: 0.051 µM; EC50 [4]: > 22.7 µM
CSc1ccc(/C=C2/C(C)=C(CN(Cc3ccco3)Cc3ccco3)c3cc(F)ccc32)cc1 [Compound 54] | > 50 µM | – | – | – | – | CC50 [1]: > 50 µM; CC50 [3]: 48.8 ± 20.3 µM
COc1cc(/C=C2/C(C)=C(CN(Cc3ccccc3)Cc3ccccc3)c3cc(F)ccc32)cc(OC)c1OC [Compound 55] | > 50 µM | – | – | – | – | CC50 [1]: > 50 µM; CC50 [3]: > 50 µM
COc1cc(/C=C2/C(C)=C(CN(Cc3ccc(F)cc3)Cc3ccc(F)cc3)c3cc(F)ccc32)cc(OC)c1OC [Compound 57] | > 50 µM | – | – | – | – | CC50 [1]: > 50 µM; CC50 [3]: > 50 µM
COc1cc(/C=C2/C(C)=C(CN(Cc3ccc4ccccc4c3)Cc3ccc4ccccc4c3)c3cc(F)ccc32)cc(OC)c1OC [Compound 58] | – | > 50 µM | > 50 µM | > 50 µM | 95 to 97 °C | –
COc1ccc(CN(CC2=C(C)/C(=C/c3cc(OC)c(OC)c(OC)c3)c3ccc(F)cc32)Cc2ccc(OC)cc2)cc1 [Compound 59] | > 50 µM | – | – | – | – | CC50 [1]: > 50 µM; CC50 [3]: > 50 µM
COc1cc(/C=C2/C(C)=C(CN(CCc3ccccc3)CCc3ccccc3)c3cc(F)ccc32)cc(OC)c1OC [Compound 60] | – | > 50 µM | > 50 µM | > 50 µM | – | –
COc1cc(/C=C2/C(C)=C(CN(Cc3ccco3)Cc3ccco3)c3cc(F)ccc32)cc(OC)c1OC [Compound 61] | > 50 µM | – | – | – | – | CC50 [1]: > 50 µM; CC50 [3]: > 50 µM

Reference: article PMC5817852 (The Open Medicinal Chemistry Journal, 2018)
